Data reported in ChEMBL document CHEMBL6096670, “Design, synthesis and biological evaluation of novel β-carbolines as antitumor agents via targeting autophagy in colorectal cancer” (Eur J Med Chem, 2025).
Calls of active or inactive are those of the source. The calls are words filed in the database; no cut-off is given here.

Key:
[1] = tested on: HCT-116; test: Induction of apoptosis in human HCT-116 assessed as necrotic cells at 1 uM incubated for 24 hrs Annexin V FITC/PI double staining based flow cytometry (reference value: 0.94 %); assay type: functional
[2] = Toxicity in female BALB/c mouse implanted with mouse CT26 cells assessed as change in body weight at 1 to 2 mg/kg administrated once every 3 days for 18 days; assay type: organism-based; conditions: in vivo, 432 h, dose 1-2 mg/kg, time 18 day
[3] = tested on: MCF7; test: Antiproliferative activity against human MCF7 cells assessed as inhibition of cell growth incubated for 48 hrs by MTT assay; assay type: functional, cell-based; conditions: MCF7, 48 h
[4] = tested on: HCT-116; test: Antiproliferative activity against Bax knockout human HCT-116 cells assessed as inhibition of cell viability incubated for 24 hrs by CCK8 assay; assay type: functional, cell-based; conditions: HCT-116, 24 h
[5] = tested on: A-375; test: Antiproliferative activity against human A-375 cells assessed as inhibition of cell growth incubated for 48 hrs by MTT assay; assay type: functional, cell-based; conditions: A-375, 48 h
[6] = tested on: CT26; test: Antitumor activity against mouse CT26 cells implanted in female BALB/c mouse assessed as reduction in tumor weight at 2 mg/kg administrated once every 3 days for 18 days relative to control; assay type: functional; set-up: scale not given: the % may be the effect or the level left; conditions: time 18 day
[7] = tested on: HCT-116; test: Induction of autophagy in ATG5 knockout human HCT-116 cells assessed as increase in LC3-II expression at 1 to 2 uM incubated for 24 hrs by Western blot analysis; assay type: functional, cell-based; conditions: dose 1-2 µM
[8] = tested on: HCT-116; test: Induction of apoptosis in human HCT-116 assessed as necrotic cells at 1 uM pretreated with Z-VAD-FMK for 30 mins followed by compound addition and measured after 24 hrs by Annexin V-FITC/PI double staining based flow cytometry (reference value: 0.84 %); assay type: functional
[9] = tested on: HCT-116; test: Induction of apoptosis in human HCT-116 assessed as late apoptotic cells at 2 uM incubated for 24 hrs Annexin V FITC/PI double staining based flow cytometry (reference value: 8.02 %); assay type: functional
[10] = tested on: HCT-116; test: Upregulation of autophagy pathway related genes expression in human HCT-116 cells at 1 uM incubated for 24 hrs by GSVA enrichment analysis; assay type: functional, cell-based
[11] = tested on: HCT-116; test: Induction of apoptosis in human HCT-116 assessed as necrotic cells at 2 uM incubated for 24 hrs Annexin V FITC/PI double staining based flow cytometry (reference value: 0.94 %); assay type: functional
[12] = tested on: HCT-116; test: Induction of morphological changes in human HCT-116 cells assessed as appearance of rounder cells at 0.5 to 2 uM by microscopic analysis; assay type: functional, cell-based; conditions: dose 0.5-2 µM
[13] = tested on: HCT-116; test: Induction of autophagy pathway in human HCT-116 cells at 1 uM incubated for 24 hrs by GSEA analysis; assay type: functional, cell-based
[14] = tested on: HCT-116; test: Induction of autophagy in human HCT-116 cells transfected with tandem mRFP-GFP-LC3 plasmid assessed as reduction in p62 expression incubated for 24 hrs by Western blot analysis; assay type: functional, cell-based; conditions: dose 0.5-20 µM
[15] = tested on: HCT-116; test: Induction of apoptosis in human HCT-116 assessed as viable cells at 2 uM pretreated with Z-VAD-FMK for 30 mins followed by compound addition and measured after 24 hrs by Annexin V-FITC/PI double staining based flow cytometry (reference value: 90.8%); assay type: functional; conditions: read-out: Activity
[16] = tested on: HCT-116; test: Effect on C-PARP expression level in p53 knockout human HCT-116 cells at 1 to 2 uM incubated for 24 hrs by Western blot analysis; assay type: functional, cell-based; conditions: dose 1-2 µM
[17] = tested on: HCT-116; test: Inhibition of cell migration in human HCT-116 cells at 1 to 2 uM incubated for 24 hrs by crystal violet staining based transwell migration assay; assay type: functional; conditions: dose 1-2 µM
[18] = tested on: HCT-116; test: Effect on C-PARP expression level in Bax knockout human HCT-116 cells at 1 to 2 uM incubated for 24 hrs by Western blot analysis; assay type: functional, cell-based; conditions: dose 1-2 µM
[19] = tested on: HCT-116; test: Effect on caspase 3 expression level in p53 knockout human HCT-116 cells at 1 to 2 uM incubated for 24 hrs by Western blot analysis; assay type: functional, cell-based; conditions: dose 1-2 µM
[20] = tested on: HCT-116; test: Effect on PARP expression level in Bax knockout human HCT-116 cells at 1 to 2 uM incubated for 24 hrs by Western blot analysis; assay type: functional, cell-based; conditions: dose 1-2 µM
[21] = tested on: CT26; test: Antitumor activity against mouse CT26 cells implanted in female BALB/c mouse assessed as reduction in Ki67 expression at 1 to 2 mg/kg administrated once every 3 days for 18 days by immunohistochemistry analysis; assay type: functional, organism-based; conditions: dose 1-2 mg/kg, time 18.0 day
[22] = Toxicity in female BALB/c mouse implanted with mouse CT26 cells assessed as change in lung morphology at 1 to 2 mg/kg administrated once every 3 days for 18 days by H&E staining based analysis; assay type: organism-based; conditions: in vivo, 432 h, dose 1-2 mg/kg, time 18 day
[23] = tested on: HCT-116; test: Effect on caspase 3 expression level in Bax knockout human HCT-116 cells at 1 to 2 uM incubated for 24 hrs by Western blot analysis; assay type: functional, cell-based; conditions: dose 1-2 µM
[24] = tested on: HCT-116; test: Antiproliferative activity against p53 knockout human HCT-116 cells assessed as inhibition of cell viability incubated for 24 hrs by CCK8 assay; assay type: functional, cell-based; conditions: HCT-116, 24 h
[25] = tested on: HCT-116; test: Induction of apoptosis in human HCT-116 assessed as late apoptotic cells at 2 uM pretreated with Z-VAD-FMK for 30 mins followed by compound addition and measured after 24 hrs by Annexin V-FITC/PI double staining based flow cytometry (reference value: 7.43%); assay type: functional
[26] = tested on: CWR22R; test: Antiproliferative activity against human 22Rv1 cells assessed as inhibition of cell growth incubated for 48 hrs by MTT assay; assay type: functional, cell-based; conditions: 22Rv1, 48 h
[27] = tested on: 786-0; test: Antiproliferative activity against human 786-0 cells assessed as inhibition of cell growth incubated for 48 hrs by MTT assay; assay type: functional, cell-based; conditions: 786-0, 48 h
[28] = tested on: HCT-116; test: Inhibition of colony formation in ATG5 knockout human HCT-116 cells assessed as reduction in number of colonies at 1 to 4 uM measured after 24 hrs by crystal violet staining based analysis; assay type: functional, cell-based; conditions: dose 1-4 µM
[29] = tested on: CT26; test: Antitumor activity against mouse CT26 cells implanted in female BALB/c mouse assessed as reduction in tumor volume at 1 to 2 mg/kg administrated once every 3 days for 18 days; assay type: functional, organism-based; conditions: dose 1-2 mg/kg, time 18.0 day
[30] = tested on: HCT-116; test: Effect on PARP expression level in p53 knockout human HCT-116 cells at 1 to 2 uM incubated for 24 hrs by Western blot analysis; assay type: functional, cell-based; conditions: dose 1-2 µM
[31] = tested on: HCT-116; test: Antiproliferative activity against human HCT-116 assessed as inhibition of cell viability incubated for 24 hrs by CCK8 method; assay type: functional, cell-based
[32] = tested on: HCT-116; test: Induction of autophagy in human HCT-116 cells transfected with mRFP-GFP-LC3B assessed as autophagolysosome formation by measuring RFP fluorescence at 0.5 to 2 uM incubated for 24 hrs by DAPI staining based fluorescence confocal microscopic analysis; assay type: functional, cell-based; conditions: dose 0.5-2 µM
[33] = tested on: BGC-823; test: Antiproliferative activity against human BGC-823 cells assessed as inhibition of cell growth incubated for 48 hrs by MTT assay; assay type: functional, cell-based; conditions: BGC-823, 48 h
[34] = tested on: HCT-116; test: Induction of apoptosis in human HCT-116 assessed as early apoptotic cells at 2 uM incubated for 24 hrs Annexin V FITC/PI double staining based flow cytometry (reference value: 1.07 %); assay type: functional
[35] = tested on: HCT-116; test: Antiproliferative activity against human HCT-116 assessed as inhibition of cell viability at 0.5 to 2 uM by CCK8 method; assay type: functional, cell-based; conditions: dose 0.5-2 µM, time <= 7.0 day

For `CCN(CC)CCCNCc1cc2c3ccccc3n(CCCc3ccccc3)c2c(CNCCCN(CC)CC)n1`, the Activity [1] was 2.02%, the Activity [2] was “Non-toxic” and the IC50 [3] was 4.46 µM. It also gave an IC50 [4] of 2.76 µM, an IC50 [5] of 4.45 µM and an Activity [6] of 87.3%. The Activity [7] was “inactive”, the Activity [8] was 2.2% and the Activity [9] was 13.9%. For the same molecule, the Activity [10] was “Active”, the Activity [11] was 2.86% and the Activity [12] was “Active”. The Activity [13] was “Active”, the Activity [14] was “Dose-dependent-effect” and the viability at 2 µM [15] was 82.3%. The Activity [16] was “inactive”, the inhibition [17] was “Active” and the Activity [18] was “inactive”. For the same molecule, the Activity [19] was “inactive”, the Activity [20] was “inactive” and the Activity [21] was “Active”. The Activity [22] was “Non-toxic”, the Activity [23] was “inactive” and the IC50 [24] was 2.45 µM. The Activity [25] was 13.7%, the IC50 [26] was 4.08 µM and the IC50 [27] was 3.86 µM. For the same molecule, the inhibition [28] was “Active; Insignificant Decrease In Number Of Colonies Observed”, the Activity [29] was “Active” and the Activity [30] was “inactive”. For the same molecule, the Activity [31] was “Dose-dependent-effect”, the IC50 ([31]; HCT-116, 24 h) was 2.75 µM and the Activity [32] was “Active; Rfp Fluorescence Remained Unchanged”. The IC50 [33] was 3.81 µM, the Activity [34] was 2.78% and the Activity [35] was “Time-dependent-effect”.
